PubChem BioAssay AID330 (DTP/NCI, 2004)
Values joined by “and” are separate entries in the source; they are usually repeats but may differ in a detail not shown here. Equal values may be shown once. Inconclusive results and toxic doses are left out. How the source made its calls: active means survival T/C of 150% or more; inactive means T/C below 125% in these data.

Tested on: P388 leukemia ip, CD2F1 mice, survival T/C
Test: NCI In Vivo Anticancer Drug Screen. Data for tumor model P388 Leukemia (intraperitoneal) in CD2F1 (CDF1) mice
Conditions: endpoint: median survival time, higher = longer survival
Procedure, shortened: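 Mice carrying the transplanted tumor received test compound or vehicle. Survival was recorded in each group, and the value is the treated-group measurement divided by that of the vehicle-treated control group.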

[1] = dose: 60.0 mg/kg/injection, schedule: Q01DX005 (ip), vehicle: saline with Tween-80
[2] = dose: 120.0 mg/kg/injection, schedule: Q01DX005 (ip), vehicle: saline with Tween-80
[3] = dose: 200.0 mg/kg/injection, schedule: Q04DX003 (ip), vehicle: saline
[4] = dose: 400.0 mg/kg/injection, schedule: Q04DX003 (ip), vehicle: saline
[5] = dose: 50.0 mg/kg/injection, schedule: Q01DX005 (ip), vehicle: Klucel (hydroxypropylcellulose) (HPC)
[6] = dose: 100.0 mg/kg/injection, schedule: Q01DX005 (ip), vehicle: Klucel (hydroxypropylcellulose) (HPC)
[7] = dose: 200.0 mg/kg/injection, schedule: Q01DX005 (ip), vehicle: Klucel (hydroxypropylcellulose) (HPC)
[8] = dose: 30.0 mg/kg/injection, schedule: Q01DX005 (ip), vehicle: Klucel (hydroxypropylcellulose) (HPC)
[9] = dose: 60.0 mg/kg/injection, schedule: Q01DX005 (ip), vehicle: Klucel (hydroxypropylcellulose) (HPC)

Measured: T/C

CC1(C)OC2CC3CC(O)CC3C2O1 (stereo not given)
inactive: [1] 98 % of control | [2] 102 % of control | dose: 240.0 mg/kg/injection, schedule: Q01DX005 (ip), vehicle: saline with Tween-80 102 % of control

Cc1cc(NC(=O)Nc2ccc(C3=NCCN3)cc2)ccc1NC(=O)Nc1ccc(C2=NCCN2)cc1
inactive: dose: 100.0 mg/kg/injection, schedule: Q04DX003 (ip), vehicle: saline 100 % of control | [3] 104 % of control | [4] 109 % of control

CN(C)C=Nc1cccnc1[N+](=O)[O-]
inactive: dose: 50.0 mg/kg/injection, schedule: Q01DX009 (ip), vehicle: Klucel (hydroxypropylcellulose) (HPC) 108 % of control | dose: 100.0 mg/kg/injection, schedule: Q01DX009 (ip), vehicle: Klucel (hydroxypropylcellulose) (HPC) 99 % of control | dose: 200.0 mg/kg/injection, schedule: Q01DX009 (ip), vehicle: Klucel (hydroxypropylcellulose) (HPC) 108 % of control

CN(C)c1ccc(C=NCCC[Si]23OCCN(CCO2)CCO3)cc1
inactive: [5] 106 % of control | [6] 100 % of control | [7] 111 % of control

ClCC1CSC2(CCCCC2)O1 (stereo not given)
inactive: dose: 50.0 mg/kg/injection, schedule: Q01DX009 (ip), vehicle: saline with Tween-80 104 % of control and 115 % of control | dose: 100.0 mg/kg/injection, schedule: Q01DX009 (ip), vehicle: saline with Tween-80 100 % of control and 119 % of control | dose: 200.0 mg/kg/injection, schedule: Q01DX009 (ip), vehicle: saline with Tween-80 97 % of control

Nc1cc2c(cn1)[nH]c1ccccc12
inactive: dose: 12.5 mg/kg/injection, schedule: Q01DX009 (ip), vehicle: other 108 % of control | dose: 25.0 mg/kg/injection, schedule: Q01DX009 (ip), vehicle: other 101 % of control | dose: 50.0 mg/kg/injection, schedule: Q01DX009 (ip), vehicle: other 108 % of control | [1] 97 % of control | dose: 100.0 mg/kg/injection, schedule: Q01DX009 (ip), vehicle: other 106 % of control | [2] 106 % of control

CNC(=O)Nc1[nH]c(=O)ncc1I
inactive: [8] 100 % of control | [9] 96 % of control | dose: 120.0 mg/kg/injection, schedule: Q01DX005 (ip), vehicle: Klucel (hydroxypropylcellulose) (HPC) 117 % of control

C=Cc1cc(OC)c2c(c1)c(=O)oc1c2cc(OC)c2c(O)ccc(C3OC(C(C)O)C(O)C3O)c21 (stereo not given)
inactive: dose: 2.0 mg/kg/injection, schedule: Q04DX003 (ip), vehicle: DMSO 108 % of control | dose: 4.0 mg/kg/injection, schedule: Q04DX003 (ip), vehicle: DMSO 114 % of control | dose: 8.0 mg/kg/injection, schedule: Q04DX003 (ip), vehicle: DMSO 123 % of control | dose: 15.0 mg/kg/injection, schedule: Q01DX005 (ip), vehicle: Klucel (hydroxypropylcellulose) (HPC) 119 % of control | [8] 107 % of control | [9] 120 % of control | dose: 400.0 mg/kg/injection, schedule: Q01DX005 (ip), vehicle: Klucel (hydroxypropylcellulose) (HPC) 98 % of control
active: dose: 16.0 mg/kg/injection, schedule: Q04DX003 (ip), vehicle: DMSO 155 % of control | dose: 32.0 mg/kg/injection, schedule: Q04DX003 (ip), vehicle: DMSO 155 % of control | [7] 157 % of control

O=C1c2ccccc2C(=O)c2cnccc21
inactive: [5] 109 % of control | [6] 106 % of control | [7] 106 % of control

O=C(O)CC(CS(=O)CP(=O)(O)O)C(=O)O (stereo not given)
inactive: dose: 60.0 mg/kg/injection, schedule: Q01DX005 (ip), vehicle: saline 93 % of control | dose: 120.0 mg/kg/injection, schedule: Q01DX005 (ip), vehicle: saline 98 % of control | dose: 240.0 mg/kg/injection, schedule: Q01DX005 (ip), vehicle: saline 95 % of control

c1ccc(-c2cc3cc4c(cc3[nH]2)Sc2ccccc2O4)cc1
inactive: dose: 110.0 mg/kg/injection, schedule: Q01DX001 (ip), vehicle: Klucel (hydroxypropylcellulose) (HPC) 97 % of control | dose: 220.0 mg/kg/injection, schedule: Q01DX001 (ip), vehicle: Klucel (hydroxypropylcellulose) (HPC) 101 % of control | dose: 440.0 mg/kg/injection, schedule: Q01DX001 (ip), vehicle: Klucel (hydroxypropylcellulose) (HPC) 99 % of control

Cc1[nH]c(=O)[nH]c(=O)c1/C=C/C(=O)NC(CO)CS(=O)C(C)C (stereo not given)
inactive: dose: 0.07 mg/kg/injection, schedule: Q01DX009 (ip), vehicle: water 103 % of control | dose: 0.15 mg/kg/injection, schedule: Q01DX009 (ip), vehicle: water 100 % of control | dose: 0.3 mg/kg/injection, schedule: Q01DX009 (ip), vehicle: water 103 % of control | dose: 0.6 mg/kg/injection, schedule: Q01DX009 (ip), vehicle: water 103 % of control | dose: 2.0 mg/kg/injection, schedule: Q01DX009 (ip), vehicle: water 121 % of control | dose: 4.0 mg/kg/injection, schedule: Q01DX009 (ip), vehicle: water 118 % of control | dose: 8.0 mg/kg/injection, schedule: Q01DX009 (ip), vehicle: water 118 % of control | dose: 32.0 mg/kg/injection, schedule: Q01DX009 (ip), vehicle: water 100 % of control and 124 % of control | dose: 64.0 mg/kg/injection, schedule: Q01DX009 (ip), vehicle: water 93 % of control | dose: 128.0 mg/kg/injection, schedule: Q01DX009 (ip), vehicle: water 98 % of control | dose: 200.0 mg/kg/injection, schedule: Q01DX009 (ip), vehicle: water 108 % of control | dose: 256.0 mg/kg/injection, schedule: Q01DX009 (ip), vehicle: water 96 % of control | dose: 300.0 mg/kg/injection, schedule: Q01DX009 (ip), vehicle: water 110 % of control | dose: 400.0 mg/kg/injection, schedule: Q01DX009 (ip), vehicle: water 113 % of control

CCOc1cc2c(cc1Cc1ccc(OC)cc1)OCO2
inactive: dose: 50.0 mg/kg/injection, schedule: Q01DX005 (ip), vehicle: distilled water + alcohol 108 % of control | dose: 100.0 mg/kg/injection, schedule: Q01DX005 (ip), vehicle: distilled water + alcohol 95 % of control | dose: 200.0 mg/kg/injection, schedule: Q01DX005 (ip), vehicle: distilled water + alcohol 109 % of control

CC(C)(C)N1C(=O)[N+]2(CCCCC2)N=C1[O-]
inactive: dose: 100.0 mg/kg/injection, schedule: Q04DX003 (ip), vehicle: saline with Tween-80 93 % of control | dose: 200.0 mg/kg/injection, schedule: Q04DX003 (ip), vehicle: saline with Tween-80 99 % of control | dose: 400.0 mg/kg/injection, schedule: Q04DX003 (ip), vehicle: saline with Tween-80 86 % of control

NNC(=O)c1cnn(-c2ccc(N(CCO)CCO)nn2)c1N
inactive: dose: 75.0 mg/kg/injection, schedule: Q01DX005 (ip), vehicle: other 107 % of control | dose: 150.0 mg/kg/injection, schedule: Q01DX005 (ip), vehicle: other 107 % of control | dose: 250.0 mg/kg/injection, schedule: Q01DX005 (oral), vehicle: water 104 % of control | dose: 300.0 mg/kg/injection, schedule: Q01DX005 (ip), vehicle: other 93 % of control | dose: 500.0 mg/kg/injection, schedule: Q01DX005 (oral), vehicle: water 110 % of control | dose: 1000.0 mg/kg/injection, schedule: Q01DX005 (oral), vehicle: water 103 % of control

CCOC(=O)NC(NC(=O)OCC)c1cccnc1
inactive: [3] 94 % of control | [4] 101 % of control

O=C(NN(Cn1c(=S)sc2ccccc21)Cn1c(=S)sc2ccccc21)c1cccc([N+](=O)[O-])c1
inactive: dose: 100.0 mg/kg/injection, schedule: Q01DX001 (ip), vehicle: Klucel (hydroxypropylcellulose) (HPC) 93 % of control | dose: 200.0 mg/kg/injection, schedule: Q01DX001 (ip), vehicle: Klucel (hydroxypropylcellulose) (HPC) 92 % of control | dose: 400.0 mg/kg/injection, schedule: Q01DX001 (ip), vehicle: Klucel (hydroxypropylcellulose) (HPC) 113 % of control

CC1(C)Cc2cc3ccccc3nc2-c2ccccc21
inactive: dose: 50.0 mg/kg/injection, schedule: Q01DX005 (ip), vehicle: saline with Tween-80 107 % of control | dose: 100.0 mg/kg/injection, schedule: Q01DX005 (ip), vehicle: saline with Tween-80 102 % of control | dose: 200.0 mg/kg/injection, schedule: Q01DX005 (ip), vehicle: saline with Tween-80 107 % of control

C/C=C(\C)C(=O)N/N=C/c1cccnc1
inactive: [5] 103 % of control | [6] 103 % of control | [7] 103 % of control
